Consider one compound from ChEMBL document CHEMBL4011618, “Discovery of Potent, Selective Stem Cell Factor Receptor/Platelet Derived Growth Factor Receptor Alpha (c-KIT/PDGFRα) Dual Inhibitor for the Treatment of Imatinib-Resistant Gastrointestinal Stromal Tumors (GISTs)” (J Med Chem, 2017).

Molecules are shown by their SMILES.

A short description of data set [1]: MRT (0 to t) in Sprague-Dawley rat at 2 mg/kg, iv up to 24 hrs post dose by LC/MS/MS analysis. In kind it is ADME, organism-based. The note with it: in vivo.
In data set [2] the test system is Mus musculus. The data set can be described thus: Toxicity in nu/nu mouse xenografted with human GISTT1 cells assessed as body weight loss at 25 to 100 mg/kg, ip administered daily for 28 days measured during compound dosing. In kind it is organism-based. The settings on record: in vivo, 672 h. For orientation: Xenograft models place foreign cells or tissue in a host animal.

The nature of data set [3]: Cmax in Sprague-Dawley rat at 2 mg/kg, iv up to 24 hrs post dose by LC/MS/MS analysis. In kind it is ADME, organism-based. Details: dose 2 mg/kg, route intravenous. The note with it: in vivo.
Data set [4] concerns K562. The data set can be described thus: Antiproliferative activity against human K562 cells assessed as cell growth inhibition after 72 hrs by cell titer-glo assay. In kind it is functional. The note with it: K562, 72 h.
The target of data set [5] is Macrophage colony-stimulating factor 1 receptor (Homo sapiens, UniProt P07333). The data set can be described thus: Inhibition of human full length His-tagged CSF1R expressed in baculovirus by Z'Lyte assay.
Sequence of Macrophage colony-stimulating factor 1 receptor (P07333 whole entry): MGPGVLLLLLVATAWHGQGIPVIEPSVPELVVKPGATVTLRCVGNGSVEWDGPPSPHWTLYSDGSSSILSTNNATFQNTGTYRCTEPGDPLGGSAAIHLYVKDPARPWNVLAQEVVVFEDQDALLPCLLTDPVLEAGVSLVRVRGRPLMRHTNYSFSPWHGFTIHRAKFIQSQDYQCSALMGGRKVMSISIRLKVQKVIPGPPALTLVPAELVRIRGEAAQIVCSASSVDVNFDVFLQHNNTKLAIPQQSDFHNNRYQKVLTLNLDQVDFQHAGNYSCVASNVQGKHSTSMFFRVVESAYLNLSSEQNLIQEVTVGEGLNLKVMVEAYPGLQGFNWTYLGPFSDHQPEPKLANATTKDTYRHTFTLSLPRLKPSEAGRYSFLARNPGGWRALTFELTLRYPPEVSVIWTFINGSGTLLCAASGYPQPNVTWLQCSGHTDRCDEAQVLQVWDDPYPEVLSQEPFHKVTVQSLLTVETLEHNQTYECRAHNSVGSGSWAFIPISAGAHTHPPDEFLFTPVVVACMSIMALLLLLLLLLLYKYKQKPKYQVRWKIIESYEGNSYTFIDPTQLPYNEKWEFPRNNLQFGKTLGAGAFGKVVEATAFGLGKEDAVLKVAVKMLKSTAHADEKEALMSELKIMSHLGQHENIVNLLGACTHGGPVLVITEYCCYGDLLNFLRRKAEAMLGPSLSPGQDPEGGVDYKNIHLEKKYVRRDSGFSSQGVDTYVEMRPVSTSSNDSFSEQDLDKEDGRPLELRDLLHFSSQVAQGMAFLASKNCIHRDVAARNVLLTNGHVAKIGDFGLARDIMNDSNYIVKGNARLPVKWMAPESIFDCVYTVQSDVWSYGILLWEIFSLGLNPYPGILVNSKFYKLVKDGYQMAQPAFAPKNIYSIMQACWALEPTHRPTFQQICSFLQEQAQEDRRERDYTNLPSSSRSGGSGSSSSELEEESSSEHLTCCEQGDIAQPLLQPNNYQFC
Data set [6] can be described thus: AUC (0 to t) in Sprague-Dawley rat at 25 mg/kg, ip up to 24 hrs post dose by LC/MS/MS analysis. The format is ADME, organism-based. On the set-up: dose 25 mg/kg, time < 24 hr, route intraperitoneal. The note with it: in vivo.
Data set [7] can be described thus: Tmax in Sprague-Dawley rat at 100 mg/kg, ip up to 24 hrs post dose by LC/MS/MS analysis. In kind it is ADME, organism-based. The settings on record: in vivo.
For data set [8], the target named is Vascular endothelial growth factor receptor 1 (Homo sapiens, UniProt P17948). Description: Inhibition of human GST-tagged FLT1 (781 to 1338 residues) expressed in baculovirus by ELISA.
Sequence of Vascular endothelial growth factor receptor 1 (P17948 whole entry, the tested form may be a part): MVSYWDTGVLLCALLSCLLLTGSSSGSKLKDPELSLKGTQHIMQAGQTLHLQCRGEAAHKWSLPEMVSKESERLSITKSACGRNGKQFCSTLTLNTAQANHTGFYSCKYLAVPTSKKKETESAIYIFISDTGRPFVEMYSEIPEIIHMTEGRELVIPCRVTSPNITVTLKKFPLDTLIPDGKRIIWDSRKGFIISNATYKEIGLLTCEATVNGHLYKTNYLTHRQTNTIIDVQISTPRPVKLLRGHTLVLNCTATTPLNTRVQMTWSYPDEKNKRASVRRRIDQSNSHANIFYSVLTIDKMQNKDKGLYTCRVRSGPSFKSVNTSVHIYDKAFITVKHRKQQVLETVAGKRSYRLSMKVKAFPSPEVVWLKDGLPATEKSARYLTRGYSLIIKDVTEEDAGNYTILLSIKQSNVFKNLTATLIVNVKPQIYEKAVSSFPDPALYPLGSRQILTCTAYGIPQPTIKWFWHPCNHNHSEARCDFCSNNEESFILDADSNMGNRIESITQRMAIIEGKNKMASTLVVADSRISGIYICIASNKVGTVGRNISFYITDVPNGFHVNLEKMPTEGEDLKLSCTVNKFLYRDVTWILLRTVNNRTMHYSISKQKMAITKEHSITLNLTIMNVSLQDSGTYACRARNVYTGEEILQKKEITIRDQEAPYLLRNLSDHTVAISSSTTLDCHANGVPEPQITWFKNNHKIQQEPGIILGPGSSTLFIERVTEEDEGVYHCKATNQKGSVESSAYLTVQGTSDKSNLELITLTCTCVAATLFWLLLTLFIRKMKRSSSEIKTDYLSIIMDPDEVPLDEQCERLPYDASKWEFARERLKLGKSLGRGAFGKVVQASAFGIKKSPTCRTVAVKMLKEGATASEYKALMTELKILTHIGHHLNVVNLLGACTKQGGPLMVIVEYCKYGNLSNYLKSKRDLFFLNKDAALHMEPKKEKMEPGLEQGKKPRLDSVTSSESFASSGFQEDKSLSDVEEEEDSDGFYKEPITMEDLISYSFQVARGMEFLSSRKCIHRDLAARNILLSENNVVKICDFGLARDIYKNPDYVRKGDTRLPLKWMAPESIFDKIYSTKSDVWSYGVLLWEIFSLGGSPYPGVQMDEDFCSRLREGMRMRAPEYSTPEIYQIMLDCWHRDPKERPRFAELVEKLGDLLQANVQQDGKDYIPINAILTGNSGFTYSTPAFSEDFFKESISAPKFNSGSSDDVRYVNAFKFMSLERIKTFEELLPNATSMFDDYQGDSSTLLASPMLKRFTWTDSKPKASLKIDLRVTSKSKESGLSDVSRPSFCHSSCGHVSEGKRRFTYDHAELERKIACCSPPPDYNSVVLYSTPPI
Data set [9] is described as follows: MRT (0 to infinity) in Sprague-Dawley rat at 25 mg/kg, ip up to 24 hrs post dose by LC/MS/MS analysis. The format is ADME, organism-based. The settings on record: in vivo.
The subject of data set [10] is KU812 cell line. The data set can be described thus: Antiproliferative activity against human KU812 cells assessed as cell growth inhibition after 72 hrs by cell titer-glo assay. The format is functional. The settings on record: KU812, 72 h.
Data set [11] deals with Vascular endothelial growth factor receptor 2 (Homo sapiens, UniProt P35968).
Sequence of Vascular endothelial growth factor receptor 2 (P35968 whole entry): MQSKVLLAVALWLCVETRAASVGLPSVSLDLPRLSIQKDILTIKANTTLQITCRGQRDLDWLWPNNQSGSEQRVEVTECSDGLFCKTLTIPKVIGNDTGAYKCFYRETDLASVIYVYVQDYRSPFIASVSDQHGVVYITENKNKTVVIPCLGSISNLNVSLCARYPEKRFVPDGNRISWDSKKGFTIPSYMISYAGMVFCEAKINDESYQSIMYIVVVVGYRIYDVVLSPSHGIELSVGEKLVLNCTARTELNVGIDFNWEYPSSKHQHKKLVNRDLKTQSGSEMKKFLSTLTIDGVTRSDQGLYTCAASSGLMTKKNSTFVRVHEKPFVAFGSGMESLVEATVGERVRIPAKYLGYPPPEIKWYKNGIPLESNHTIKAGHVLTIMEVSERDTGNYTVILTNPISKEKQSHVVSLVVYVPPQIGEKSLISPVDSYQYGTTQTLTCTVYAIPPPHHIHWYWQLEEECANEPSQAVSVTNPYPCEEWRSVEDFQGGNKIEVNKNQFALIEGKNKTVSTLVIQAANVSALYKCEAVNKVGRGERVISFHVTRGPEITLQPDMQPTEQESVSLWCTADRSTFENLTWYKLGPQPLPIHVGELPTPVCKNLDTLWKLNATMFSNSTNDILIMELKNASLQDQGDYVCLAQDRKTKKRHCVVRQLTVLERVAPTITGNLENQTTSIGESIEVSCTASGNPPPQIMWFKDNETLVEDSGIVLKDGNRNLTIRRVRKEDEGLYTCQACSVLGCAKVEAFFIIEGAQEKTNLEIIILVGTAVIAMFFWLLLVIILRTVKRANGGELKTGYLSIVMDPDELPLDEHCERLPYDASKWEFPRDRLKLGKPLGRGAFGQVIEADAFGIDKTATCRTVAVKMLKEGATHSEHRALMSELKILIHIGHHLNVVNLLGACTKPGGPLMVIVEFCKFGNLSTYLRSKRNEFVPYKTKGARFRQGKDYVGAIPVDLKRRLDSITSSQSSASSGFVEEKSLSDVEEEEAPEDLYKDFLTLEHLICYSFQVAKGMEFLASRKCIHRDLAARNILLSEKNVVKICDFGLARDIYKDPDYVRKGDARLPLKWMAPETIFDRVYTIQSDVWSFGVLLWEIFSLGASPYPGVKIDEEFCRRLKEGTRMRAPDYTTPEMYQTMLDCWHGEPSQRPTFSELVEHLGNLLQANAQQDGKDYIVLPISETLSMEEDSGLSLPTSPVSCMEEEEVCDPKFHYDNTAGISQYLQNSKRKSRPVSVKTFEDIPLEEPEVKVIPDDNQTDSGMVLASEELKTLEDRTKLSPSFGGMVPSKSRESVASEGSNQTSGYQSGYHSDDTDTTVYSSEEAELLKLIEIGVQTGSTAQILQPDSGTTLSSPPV
Description: Inhibition of VEGFR2 (unknown origin) using FAM-labeled peptide as substrate preincubated for 10 mins followed by substrate addition in presence of ATP by mobility shift assay
Data set [12] is described as follows: Volume of distribution at steady state in Sprague-Dawley rat at 2 mg/kg, iv up to 24 hrs post dose by LC/MS/MS analysis. In kind it is ADME, organism-based. The settings on record: in vivo, read-out: Vdss.
For data set [13], the system named is Mast/stem cell growth factor receptor Kit (Homo sapiens), P10721 [V559D].
Sequence of Mast/stem cell growth factor receptor Kit (Homo sapiens), P10721 [V559D] (P10721 whole entry V559D): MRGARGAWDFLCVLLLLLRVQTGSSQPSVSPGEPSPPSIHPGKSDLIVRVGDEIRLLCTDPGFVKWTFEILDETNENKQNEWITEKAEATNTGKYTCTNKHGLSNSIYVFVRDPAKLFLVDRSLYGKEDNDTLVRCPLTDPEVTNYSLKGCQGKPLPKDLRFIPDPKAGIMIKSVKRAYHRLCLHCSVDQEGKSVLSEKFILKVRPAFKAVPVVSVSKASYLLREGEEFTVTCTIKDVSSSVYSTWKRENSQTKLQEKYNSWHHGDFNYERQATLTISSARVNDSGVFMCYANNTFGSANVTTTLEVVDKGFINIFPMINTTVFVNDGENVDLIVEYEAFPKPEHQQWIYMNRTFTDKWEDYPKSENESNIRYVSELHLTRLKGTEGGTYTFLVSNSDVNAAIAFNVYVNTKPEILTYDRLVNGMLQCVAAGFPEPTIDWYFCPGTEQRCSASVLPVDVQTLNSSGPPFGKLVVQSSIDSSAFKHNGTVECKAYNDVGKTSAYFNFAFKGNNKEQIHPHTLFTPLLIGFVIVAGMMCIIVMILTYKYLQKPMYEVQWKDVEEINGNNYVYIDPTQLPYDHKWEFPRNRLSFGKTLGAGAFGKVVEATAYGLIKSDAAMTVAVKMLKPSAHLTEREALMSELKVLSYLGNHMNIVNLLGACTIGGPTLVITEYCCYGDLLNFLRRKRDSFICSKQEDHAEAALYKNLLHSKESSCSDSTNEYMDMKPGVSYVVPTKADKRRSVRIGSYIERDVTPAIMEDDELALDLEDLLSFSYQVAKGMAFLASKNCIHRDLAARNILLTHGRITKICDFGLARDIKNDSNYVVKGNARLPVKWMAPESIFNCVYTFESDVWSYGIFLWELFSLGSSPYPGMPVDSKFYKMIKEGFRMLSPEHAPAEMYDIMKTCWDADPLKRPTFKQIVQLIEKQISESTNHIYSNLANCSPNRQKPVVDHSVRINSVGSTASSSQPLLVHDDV
Data set [14] has as its system GIST882. The data set can be described thus: Antiproliferative activity against human GIST882 cells assessed as cell growth inhibition after 72 hrs by cell titer-glo assay. The format is functional. The settings on record: GIST882, 72 h. A general note: ATP-based viability assays read luminescence as a measure of living cells.
In data set [15] the target is Platelet-derived growth factor receptor alpha (Homo sapiens, UniProt P16234). The data set can be described thus: Inhibition of PDGFRalpha (unknown origin) using FAM-labeled peptide as substrate preincubated for 10 mins followed by substrate addition in presence of ATP by mobility shift assay.
Data set [16] is described as follows: Half life in Sprague-Dawley rat at 2 mg/kg, iv up to 24 hrs post dose by LC/MS/MS analysis. In kind it is ADME, organism-based. The note with it: in vivo.
The subject of data set [17] is Mast/stem cell growth factor receptor Kit (Homo sapiens), P10721 [V654A].
Description: Inhibition of TEL-fused cKIT V654A mutant (unknown origin) expressed in mouse BAF3 cells assessed as cell growth inhibition after 72 hrs by cell titer-glo assay
The nature of data set [18]: Tmax in Sprague-Dawley rat at 2 mg/kg, iv up to 24 hrs post dose by LC/MS/MS analysis. The format is ADME, organism-based. The note with it: in vivo.
Data set [19] has as its system Mast/stem cell growth factor receptor Kit (Homo sapiens), P10721 [A829P].
Description: Inhibition of TEL-fused cKIT A829P mutant (unknown origin) expressed in mouse BAF3 cells assessed as cell growth inhibition after 72 hrs by cell titer-glo assay
Data set [20] is described as follows: Half life in Sprague-Dawley rat at 100 mg/kg, ip up to 24 hrs post dose by LC/MS/MS analysis. The settings on record: in vivo. The format is ADME, organism-based.
Data set [21] is described as follows: AUC (0 to t) in Sprague-Dawley rat at 100 mg/kg, ip up to 24 hrs post dose by LC/MS/MS analysis. The note with it: in vivo. In kind it is ADME, organism-based. On the set-up: dose 100 mg/kg, time < 24 hr, route intraperitoneal.
Data set [22] is described as follows: MRT (0 to t) in Sprague-Dawley rat at 100 mg/kg, ip up to 24 hrs post dose by LC/MS/MS analysis. The note with it: in vivo. In kind it is ADME, organism-based.
The target of data set [23] is Tyrosine-protein kinase ABL2 (Homo sapiens) (UniProt P42684). Description: Inhibition of human wild type ABL2 (248 to 542 residues) expressed in bacterial expression system assessed as activity remaining at 1 uM by KINOMEscan assay relative to control.
The test system of data set [24] is Mast/stem cell growth factor receptor Kit (Homo sapiens), P10721 [T670I].
Sequence of Mast/stem cell growth factor receptor Kit (Homo sapiens), P10721 [T670I] (P10721 whole entry T670I): as the sequence (P10721 whole entry V559D) above, with D559V, T670I counted along it
Description: Inhibition of TEL-fused cKIT T670I mutant (unknown origin) expressed in mouse BAF3 cells assessed as cell growth inhibition after 72 hrs by cell titer-glo assay

Sequence of Mast/stem cell growth factor receptor Kit (Homo sapiens), P10721 [V654A] (P10721 whole entry V654A): as the sequence (P10721 whole entry V559D) above, with D559V, V654A counted along it
Sequence of Mast/stem cell growth factor receptor Kit (Homo sapiens), P10721 [A829P] (P10721 whole entry A829P): as the sequence (P10721 whole entry V559D) above, with D559V, A829P counted along it

Usually MRT last stands for a mean duration of stay, worked out from the concentration-time curve. By Cmax is commonly meant the highest concentration seen after dosing. What is called GI50 is the concentration that inhibits growth by half. What is called IC50 is the concentration at which inhibition is half-maximal. What is called AUC(0-t) is exposure summed from dosing to a finite time, without extrapolation to infinity. A high value points to high exposure. Usually Tmax stands for the time from dosing to the highest level. In general, MRT inf refers to the average time that molecules of a dose stay in the body. The term half-life denotes the time needed for the level to fall by half in the phase considered. As for `Cc1cc(NC(=O)Nc2ccc(-c3ccnc4[nH]nc(C)c34)cc2)ccc1N1CCOCC1`, the MRT last at 24 h in [1] was determined as 1.13 h; in data set [22] it was 7.99 h. The Activity result in [2] is “Non-Toxic”; in [23], > 35%. The same compound displayed a Cmax in data set [3] of 1890 ng/mL. The GI50 is > 10000 nM in data set [4]; > 10000 nM in data set [10]; 96.5 nM in data set [13]; < 3 nM in [14]; 136 nM in data set [17]; 11.6 nM in data set [19]. Moreover, it took 39.2 nM to inhibit growth in [24] by half (GI50). Besides, the half-inhibitory concentration (IC50) in [5] worked out at 160 nM; in data set [8], 159 nM; in data set [11] it was 2280 nM; in [15], 7.2 nM. Also, the AUC(0-t) at 24 h in [6] turned out to be 691 ng·h/mL; in data set [21], 4250 ng·h/mL. The figures for the Tmax in data set [7] and in [18] were 4 h and 4.98 min, respectively. Further, in data set [9], the mean residence time (MRT inf) was determined as 6.48 h. The Vd in [12] was found to be 0.97 L/kg. Also, the values for the half-life in [16] and in data set [20] were 0.69 h and 11 h, respectively.
